For five molecules, EC50 results are on record in PubChem BioAssay AID2651 (Vanderbilt High Throughput Screening Facility, 2010).

Active and inactive are the calls of the source.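 Rule for the calls: active = mean EC50 from three replicate curves at or below a set limit; inactive = mean EC50 above a set limit.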

The target of the experiment is Muscarinic acetylcholine receptor M1 (Rattus norvegicus) (UniProt P08482). As to the kind of experiment: rat M1 PAM analog potency, SAR follow-up, cell-based, calcium mobilization, CHO-K1 (AID 2651). The following applies: CHO-K1 rat M1, calcium Fluo-4, ACh EC20 potentiation.
Chain of Muscarinic acetylcholine receptor M1 (Rattus norvegicus) (P08482 whole entry, looked up): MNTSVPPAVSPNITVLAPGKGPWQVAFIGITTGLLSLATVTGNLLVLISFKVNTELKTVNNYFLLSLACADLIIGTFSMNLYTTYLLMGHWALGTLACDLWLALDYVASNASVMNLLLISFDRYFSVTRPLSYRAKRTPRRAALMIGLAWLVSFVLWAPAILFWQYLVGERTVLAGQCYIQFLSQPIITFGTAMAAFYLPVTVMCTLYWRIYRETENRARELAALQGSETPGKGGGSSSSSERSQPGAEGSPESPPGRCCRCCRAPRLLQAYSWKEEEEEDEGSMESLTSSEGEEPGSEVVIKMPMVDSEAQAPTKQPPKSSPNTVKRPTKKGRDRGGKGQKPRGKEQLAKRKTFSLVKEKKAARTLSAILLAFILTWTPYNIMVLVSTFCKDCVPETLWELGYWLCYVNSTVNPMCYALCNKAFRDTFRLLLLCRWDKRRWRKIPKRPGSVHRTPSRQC

Consider `Cc1cc(NC(=O)CS(=O)(=O)c2cn(Cc3ccc(F)c(Cl)c3)c3ccccc23)no1`, for which the EC50 is > 30 µM (inactive). With `Cc1cc(NC(=O)CS(=O)(=O)c2cn(Cc3cccc(C(F)(F)F)c3)c3ccccc23)no1`, the EC50 was > 30 µM (inactive).

On to `Cc1cc(NC(=O)CS(=O)(=O)c2cn(Cc3ccc(Cl)c(Cl)c3)c3ccccc23)no1`, for which the EC50 was > 30 µM (inactive). For `Cc1cc(NC(=O)CS(=O)(=O)c2cn(Cc3cccc(-c4ccccc4)c3)c3ccccc23)no1`, the EC50 is > 30 µM (inactive). For `Cc1cc(NC(=O)CS(=O)(=O)c2cn(Cc3ccc(F)c(-c4ccn[nH]4)c3)c3ccccc23)no1` the value was > 30 µM (inactive).

As usually defined, the EC50 is the concentration giving half of the maximal effect.
